pIC50: −log10 of the molar value.
Key:
[1] = molecular target: T1, Cbl-b (aa36-427) (Homo sapiens, UniProt Q13191); test: Biotin-labelled Cbl-b biochemical assay (CBLB/E2-Ub binding, HTRF); settings: 5.0 nM biotin labelled Cbl-b
T1 construct: Cbl-b (aa36-427, in-house); made in house
Procedure: (§1) The assay in the absence of a Cbl-b/Cbl inhibitor, where phosphorylation of Cbl-b/Cbl by the Src kinase allows UbcH5B-Ub to bind to Cbl-b/Cbl and brings the Bodipy-Fluorescein tagged ubiquitin in proximity to the streptavidin-terbium bound to the N-terminal biotinylated Avi-tagged Cbl-b/Cbl. […] The lack of a FRET signal indicates Cbl-b/Cbl is inhibited by the Cbl-b/Cbl inhibitor.
(§2) 5.0 nM recombinant biotin labelled Cbl-b was pre-incubated with a serial dilution of compounds (maximum concentration is 100 μM, 3-fold serially diluted, 16 points) at room temperature for 1.5 hour in an assay buffer containing 50 mM HEPES, pH 7.0, 100 mM NaCl, 0.01% BSA, 1 mM DTT, 0.01% Triton X-100. Then 25 nM in-house UbcH5B-Ub conjugate protein, 60 nM SRC (aa251-536, in-house), 0.5 mM ATP, 5 mM MgCl2 and Streptavidin-Tb cryptate (Cat: 610SATLB, Cisbio Bioassays) were added to plate and further incubated at room temperature for 2 hours.

[2] = molecular target: T2, Cbl (aa49-434) (Homo sapiens, UniProt P22681); test: Biotin-labelled Cbl biochemical assay (CBL/E2-Ub binding, HTRF); settings: 5.0 nM biotin labelled Cbl
T2 construct: Cbl (aa49-434, in-house); made in house
T2 sequence (P22681 49-434): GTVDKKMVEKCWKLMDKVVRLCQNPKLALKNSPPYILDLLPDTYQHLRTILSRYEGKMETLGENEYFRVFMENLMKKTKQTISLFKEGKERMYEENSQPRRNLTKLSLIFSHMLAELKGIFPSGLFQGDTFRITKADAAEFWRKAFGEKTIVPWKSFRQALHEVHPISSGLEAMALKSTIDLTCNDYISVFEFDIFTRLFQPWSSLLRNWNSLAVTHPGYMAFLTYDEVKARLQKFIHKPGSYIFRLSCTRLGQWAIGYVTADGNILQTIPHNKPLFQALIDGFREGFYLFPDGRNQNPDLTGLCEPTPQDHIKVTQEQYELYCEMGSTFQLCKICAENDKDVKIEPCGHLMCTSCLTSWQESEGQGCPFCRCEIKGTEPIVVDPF
Procedure: as §1
as §2, with “labelled Cbl” for “labelled Cbl-b”, “100 µM,” for “100 μM,”, “Then 10” for “Then 25”

[3] = molecular target: T1, Cbl-b (aa36-427); test: Co-expressed Cbl-b with BirA biochemical assay (CBLB/E2-Ub binding, HTRF); settings: 0.6 nM Cbl-b co-expressed with BirA, HTRF; read-out: co-express CBLB/E2-Ub-binding assay IC50
Text: as §1

[4] = molecular target: T2, Cbl (aa49-434); test: Co-expressed Cbl with BirA biochemical assay (CBL/E2-Ub binding, HTRF); settings: 0.6 nM Cbl co-expressed with BirA, read-out: co-express CBL/E2-Ub-binding assay IC50
Text: as §1

T1 sequence (Q13191 36-427): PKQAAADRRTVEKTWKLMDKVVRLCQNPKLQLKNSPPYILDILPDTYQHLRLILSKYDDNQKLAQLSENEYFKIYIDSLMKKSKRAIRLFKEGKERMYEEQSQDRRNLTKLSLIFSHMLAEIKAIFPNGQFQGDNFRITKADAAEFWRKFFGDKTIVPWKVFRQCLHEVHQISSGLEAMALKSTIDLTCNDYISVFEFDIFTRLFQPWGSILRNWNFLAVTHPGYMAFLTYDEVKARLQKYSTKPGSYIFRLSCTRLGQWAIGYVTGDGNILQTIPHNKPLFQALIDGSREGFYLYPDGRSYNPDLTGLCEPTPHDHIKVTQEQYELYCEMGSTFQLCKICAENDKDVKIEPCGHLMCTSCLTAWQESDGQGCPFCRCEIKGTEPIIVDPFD

Q: With `C[C@H]1CCCN(Cc2cc(C(=O)Nc3cccc([C@]4(c5nncn5C)C[C@@H](C)C4)c3)nc3c2CC[C@@H]3C)C1` (single isomer, unassigned) [Compound C4, (S)-7-methyl-N-(3-((1s,3R)-3-methyl-1-(4-methyl-4H-1,2,4-triazol-3-yl)cyclobutyl)phenyl)-4-(((S)-3-methylpiperidin-1-yl)methyl)-6,7-dihydro-5H-cyclopenta[b]pyridine-2-carboxamide or (R)-7-methyl-N-(3-((1s,3S)-3-methyl-1-(4-methyl-4H-1,2,4-triazol-3-yl)cyclobutyl)phenyl)-4-(((S)-3-methylpiperidin-1-yl)methyl)-6,7-dihydro-5H-cyclopenta[b]pyridine-2-carboxamide] as the compound, how does the pIC50 [1] read?
A: 7.79

Q: What about the pIC50 [2] of the same compound?
A: 7.12

Q: How did the pIC50 [1] turn out when `C[C@H]1CCCN(Cc2cc(C(=O)Nc3cccc([C@]4(Cc5nncn5C)C[C@@H](C#N)C4)c3)c3nccn3c2)C1` [Compound A4, N-(3-((1r,3S)-3-cyano-1-((4-methyl-4H-1,2,4-triazol-3-yl)methyl)cyclobutyl)phenyl)-6-(((S)-3-methylpiperidin-1-yl)methyl)imidazo[1,2-a]pyridine-8-carboxamide] was run?
A: 8.48

Q: And the pIC50 [2]?
A: 7.54

Q: With `CC1CC(c2cccc(NC(=O)c3cc(CN4CCC[C@H](C)C4)c4c(n3)CCC4)c2)(c2nncn2C)C1` (stereo partly drawn) [Compound C1, (S)—N-(3-(3-methyl-1-(4-methyl-4H-1,2,4-triazol-3-yl)cyclobutyl)phenyl)-4-((3-methylpiperidin-1-yl)methyl)-6,7-dihydro-5H-cyclopenta[b]pyridine-2-carboxamide] as the compound, how does the pIC50 [1] read?
A: 7.96

Q: And the pIC50 [2]?
A: 7.22

Q: `C[C@H]1CCCN(Cc2cc(C(=O)Nc3cccc([C@]4(c5nncn5C)C[C@H](C)C4)c3)c3nccn3c2)C1` [Compound A2, N-(3-((1r,3S)-3-methyl-1-(4-methyl-4H-1,2,4-triazol-3-yl)cyclobutyl)phenyl)-6-(((S)-3-methylpiperidin-1-yl)methyl)imidazo[1,2-a]pyridine-8-carboxamide] was tested. Which pIC50 [1] did it give?
A: 8.49

Q: And the pIC50 [2]?
A: 7.64

Q: Which results are given for `C[C@H]1CCCN(Cc2cc(C(=O)Nc3cccc([C@]4(c5nncn5C)C[C@@H](CC#N)C4)c3)c3nccn3c2)C1` [Compound A3, N-(3-((1s,3R)-3-(cyanomethyl)-1-(4-methyl-4H-1,2,4-triazol-3-yl)cyclobutyl)phenyl)-6-(((S)-3-methylpiperidin-1-yl)methyl)imidazo[1,2-a]pyridine-8-carboxamide]?
A: pIC50 [1]: 8.24; pIC50 [2]: 7.22; pIC50 [3]: 8.15; pIC50 [4]: 7.33

Q: With `C[C@H]1CCCN(Cc2cc(C(=O)Nc3cccc([C@]4(c5nncn5C)C[C@@H](CC#N)C4)c3)nc3c2CCC3(F)F)C1` [Compound C6, N-(3-((1s,3R)-3-(cyanomethyl)-1-(4-methyl-4H-1,2,4-triazol-3-yl)cyclobutyl)phenyl)-7,7-difluoro-4-(((S)-3-methylpiperidin-1-yl)methyl)-6,7-dihydro-5H-cyclopenta[b]pyridine-2-carboxamide] as the compound, how does the pIC50 [1] read?
A: 8.47

Q: What about the pIC50 [2] of the same compound?
A: 7.32

Q: `CC1CCc2c(CN3CCC[C@H](C)C3)cc(C(=O)Nc3cccc([C@]4(c5nncn5C)C[C@@H](C)C4)c3)nc21` (stereo partly drawn) [Compound C2, 7-methyl-N-(3-((1s,3R)-3-methyl-1-(4-methyl-4H-1,2,4-triazol-3-yl)cyclobutyl)phenyl)-4-(((S)-3-methylpiperidin-1-yl)methyl)-6,7-dihydro-5H-cyclopenta[b]pyridine-2-carboxamide] was tested. Which pIC50 [1] did it give?
A: 7.92

Q: What about the pIC50 [2] of the same compound?
A: 7.54

Q: How did the pIC50 [1] turn out when `C[C@H]1CCCN(Cc2cc(C(=O)Nc3cccc([C@]4(c5nncn5C)C[C@@H](C)C4)c3)nc3c2CC[C@@H]3C)C1` (single isomer, unassigned) [Compound C3, (S)-7-methyl-N-(3-((1s,3R)-3-methyl-1-(4-methyl-4H-1,2,4-triazol-3-yl)cyclobutyl)phenyl)-4-(((S)-3-methylpiperidin-1-yl)methyl)-6,7-dihydro-5H-cyclopenta[b]pyridine-2-carboxamide or (R)-7-methyl-N-(3-((1s,3S)-3-methyl-1-(4-methyl-4H-1,2,4-triazol-3-yl)cyclobutyl)phenyl)-4-(((S)-3-methylpiperidin-1-yl)methyl)-6,7-dihydro-5H-cyclopenta[b]pyridine-2-carboxamide] was run?
A: 8.32

Q: And the pIC50 [2]?
A: 7.66

Q: What does the source list for `C[C@H]1CCCN(Cc2cc(C(=O)Nc3cccc([C@]4(c5nncn5C)C[C@@H](C)C4)c3)c3nccn3c2)C1` [Compound A1, N-(3-((1s,3R)-3-methyl-1-(4-methyl-4H-1,2,4-triazol-3-yl)cyclobutyl)phenyl)-6-(((S)-3-methylpiperidin-1-yl)methyl)imidazo[1,2-a]pyridine-8-carboxamide]?
A: pIC50 [1]: 8.27; pIC50 [2]: 7.50

Q: How did the pIC50 [1] turn out when `C[C@H]1CCCN(Cc2cc(C(=O)Nc3cccc([C@]4(c5nncn5C)C[C@@H](C)C4)c3)nc3c2CCC3(F)F)C1` [Compound C5, 7,7-difluoro-N-(3-((1s,3R)-3-methyl-1-(4-methyl-4H-1,2,4-triazol-3-yl)cyclobutyl)phenyl)-4-(((S)-3-methylpiperidin-1-yl)methyl)-6,7-dihydro-5H-cyclopenta[b]pyridine-2-carboxamide] was run?
A: 8.08

Q: What about the pIC50 [2] of the same compound?
A: 7.54

Q: With `C[C@@H]1CN(Cc2cc(C(=O)Nc3cccc([C@]4(c5nncn5C)C[C@@H](CC#N)C4)c3)c3nccn3c2)CCO1` [Compound A5, N-(3-((1s,3S)-3-(cyanomethyl)-1-(4-methyl-4H-1,2,4-triazol-3-yl)cyclobutyl)phenyl)-6-(((R)-2-methylmorpholino)methyl)imidazo[1,2-a]pyridine-8-carboxamide] as the compound, how does the pIC50 [1] read?
A: 6.86

Q: What about the pIC50 [2] of the same compound?
A: 6.04

Q: With `CC(C)CNCc1cc(C(=O)Nc2cccc([C@]3(c4nncn4C)C[C@@H](C)C3)c2)nc2cc[nH]c12` [Compound B1, 7-((isobutylamino)methyl)-N-(3-((1s, 3s)-3-methyl-1-(4-methyl-4H-1,2,4-triazol-3-yl)cyclobutyl)phenyl)-1H-pyrrolo[3,2-b]pyridine-5-carboxamide] as the compound, how does the pIC50 [3] read?
A: 9.15

Q: What about the pIC50 [4] of the same compound?
A: 8.68

Q: With `Cn1cnnc1[C@]1(c2cncc(NC(=O)c3cc(CNCC4CCC4)c4[nH]cc(Cl)c4n3)c2)C[C@H](C)C1` [Compound B53, 3-chloro-7-(((cyclobutylmethyl)amino)methyl)-N-(5-((1s, 3s)-3-methyl-1-(4-methyl-4H-1,2,4-triazol-3-yl)cyclobutyl)pyridin-3-yl)-1H-pyrrolo[3,2-b]pyridine-5-carboxamide] as the compound, how does the pIC50 [3] read?
A: 8.51

Q: What about the pIC50 [4] of the same compound?
A: 8.01

Q: Which results are given for `C[C@H](NCc1cc(C(=O)Nc2cccc([C@]3(c4nncn4C)C[C@@H](CC#N)C3)c2)c2nccn2c1)C1CC1` [Compound A27, N-(3-((1s,3R)-3-(cyanomethyl)-1-(4-methyl-4H-1,2,4-triazol-3-yl)cyclobutyl)phenyl)-6-((((S)-1-cyclopropylethyl)amino)methyl)imidazo[1,2-a]pyridine-8-carboxamide]?
A: pIC50 [3]: 8.85; pIC50 [4]: 8.10

— patent US20250163047A1, “HETEROCYCLIC COMPOUNDS, COMPOSITIONS THEREOF, AND METHODS OF TREATMENT THEREWITH” (BeiGene, Ltd., priority 2022, published 2025)
